According to paper PMC4604124, “In Vitro Characterization of the Pharmacological Properties of the Anti-Cancer Chelator, Bp4eT, and Its Phase I Metabolites” (PLoS ONE, 2015):
Where “and” joins values, the source holds several entries; their conditions need not be identical. Equal values may be shown once.

Experiments:
[1] = tested on: A549 human lung adenocarcinoma cells; assay: MTT cytotoxicity assay, A549 cells; type: cell-based; details: against A549 cells (H9c2/A549 and 3T3/A549)
Procedure: For cytotoxicity experiments, cancer cells were seeded at a density of 5,000 (MCF-7), 10,000 (HL-60) or 2,000 cells/well (HCT116 and A549) in 96-well plates (TPP) for 24 h/37°C prior to the addition of examined agents. The non-cancerous cells, 3T3 and H9c2 cells, were cultured for 24 h/37°C in 96-well plates at a density of 10,000 cells/well, the medium was then changed to serum- and pyruvate-free DMEM (Sigma-Aldrich) and incubated with the cells for another 24 h/37°C. The cytotoxic effects of Bp4eT and its metabolites were studied at different concentrations after a 72 h/37°C incubation. In order to aid the dissolution of the lipophilic ligands, 0.1% dimethyl sulfoxide (v/v) (DMSO; Sigma-Aldrich) was present in the culture medium of all groups. At this concentration, DMSO had no effect on cellular proliferation or viability.
The viability of cells were determined using an MTT assay (Sigma-Aldrich) according to previously established methods. The optical density of soluble MTT was measured at λ = 570 nm, subtracting the λ = 690 nm background using a Tecan Infinite 200M plate reader (Tecan Group, Männedorf, Switzerland). The viability or proliferation of experimental groups was expressed as a percentage of the untreated controls (100%).
SigmaStat for Windows 3.5 (Systat Software, San Jose, CA, USA) statistical software package was utilized to analyze results. The data are expressed as the mean ± SD of a given number of experiments. Statistical significance was determined using a one-way ANOVA with a Bonferroni post-hoc test or Student’s t-test. The results were considered to be statistically significant when p < 0.05. The IC50 values were calculated using CalcuSyn 2.0 software (Biosoft, Cambridge, UK). Cell cycle analysis was evaluated using MultiCycle AV Software (Phoenix Flow Systems, San Diego, CA, USA).

MCF-7 cells = assay: Cellular 59Fe uptake from 59Fe2-transferrin; type: cell-based, human; parameters: key to Uptake 59Fe, Ave / Uptake 59Fe: % of internalized 59Fe in untreated control cells
Text: Human transferrin (Sigma) was labeled with ^56Fe or ^59Fe (PerkinElmer, Massachusetts, USA) to produce ^56Fe2-transferrin or ^59Fe2-transferrin (^59Fe2-Tf), respectively, with a final specific activity of 500 pCi/pmol Fe, as previously described. Unbound ^59Fe was removed by exhaustive vacuum dialysis against a large excess of 0.15 M NaCl buffered to pH 7.4 with 1.4% NaHCO3 by standard methods.
The ability of the chelators to prevent cellular ^59Fe uptake from ^59Fe2-transferrin was examined using standard techniques. In brief, confluent MCF-7 cells in 6-well plates were incubated with 0.75 μM ^59Fe2-Tf for 3 h/37°C in the presence of Bp4eT or its metabolites (25 μM). The cells were then washed four times with ice-cold PBS and the level of internalized ^59Fe was determined by incubating the cell monolayer for 30 min/4°C with the general protease, Pronase (1 mg/mL; Sigma-Aldrich). The cells were then removed from the monolayer with a plastic spatula on ice and centrifuged for 1 min/12,000 x g/4°C. The supernatant represents membrane-bound, Pronase-sensitive ^59Fe that was released by the protease, while the Pronase-insensitive fraction represents internalized ^59Fe. The amount of internalized ^59Fe was expressed as a percentage of ^59Fe internalized by control (untreated) cells.

[2] = Ascorbate oxidation assay (redox activity of iron complexes); type: biochemical;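 as to %Fe 30min (ascorbate oxidation, Fe 100%), průměr: IBE 3 means excess free chelator over iron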;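 as to %Fe 30min (ascorbate oxidation, Fe 100%): IBE 3 means excess free chelator over iron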;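 as to %Fe 30min (ascorbate oxidation, Fe = 100%), průměr (mean): IBE 1 means iron-binding equivalents giving fully coordinated iron-chelator complexes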;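 as to %Fe 30min (ascorbate oxidation, Fe = 100%), single replicates: IBE 1 means iron-binding equivalents giving fully coordinated iron-chelator complexes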;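 as to %Fe 30min: ascorbate oxidation as % of the Fe control (Fe 100%): IBE 0.1 means iron-binding equivalents with iron in excess over chelator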;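 as to Change of absorbance, odečet 0 (time 0 subtracted), čas 10, průměr: IBE 3 means excess free chelator over 10 µM FeCl3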;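 as to Change of absorbance, odečet 0 (time 0 subtracted), čas 10: IBE 3 means excess free chelator over 10 µM FeCl3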;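 as to Change of absorbance, odečet 0 (time 0 subtracted), čas 20, průměr: 100 µM ascorbate with 10 µM FeCl3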;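 as to Change of absorbance, odečet 0 (time 0 subtracted), čas 20: 100 µM ascorbate with 10 µM FeCl3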;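 as to Change of absorbance, odečet 0 (time 0 subtracted), čas 30, průměr: 100 µM ascorbate with 10 µM FeCl3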;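 as to Change of absorbance, odečet 0 (time 0 subtracted), čas 30: 100 µM ascorbate with 10 µM FeCl3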;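 as to odečet 0 (reading minus time 0 reading) at čas 20, single replicates: IBE 1 means fully coordinated iron chelator complexes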;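 as to odečet 0 (reading minus time 0 reading) at čas 30, průměr (mean): IBE 1 means fully coordinated iron chelator complexes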;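 as to odečet 0 (reading minus time 0 reading) at čas 30, single replicates: IBE 1 means fully coordinated iron chelator complexes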;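 as to raw reading at čas 20 (time 20), průměr (mean): IBE 1 means fully coordinated iron chelator complexes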;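 as to raw reading at čas 20 (time 20), single replicates: IBE 1 means fully coordinated iron chelator complexes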;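 as to raw reading at čas 30 (time 30), průměr (mean): IBE 1 means fully coordinated iron chelator complexes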;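 as to raw reading at čas 30 (time 30), single replicates: IBE 1 means fully coordinated iron chelator complexes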
[3] = sheet IBE 1, time 10, replicates
[4] = sheet IBE 1, time 20, replicates
[5] = sheet IBE 1, time 30, replicates

CCNC(=S)NN=C(c1ccccc1)c1ccccn1 [Bp4eT, 2-benzoylpyridine 4-ethyl-3-thiosemicarbazone]
Therapeutic indices, range [1]: 0.9–2.2
Internalized 59Fe uptake, % of the control (MCF-7 cells; 25 μM, 3 h/37°C, MCF-7, 0.75 μM 59Fe2-Tf): 11.5%
Uptake 59Fe, Ave (MCF-7 cells; average of all replicates, Control Ave = 100): 11.5476
Uptake 59Fe (MCF-7 cells; single replicate (three per date), Control Ave = 100): 9.2904 and 11.2475 and 13.4264 and 10.306 and 10.873 and 13.9435 and 11.6905 and 10.1589 and 12.9919
%Fe 30min: ascorbate oxidation as % of the Fe control (Fe 100%) ([2]; IBE 0.1, 30 min, mean (průměr)): 114.3%
Change of absorbance after subtraction of time 0 (odečet 0) ([2]; IBE 0.1, time 10, mean (průměr)): -0.04348
Change of absorbance after subtraction of time 0 (odečet 0) ([2]; IBE 0.1, time 20, mean (průměr)): -0.0765
Change of absorbance after subtraction of time 0 (odečet 0) ([2]; IBE 0.1, time 30, mean (průměr)): -0.108
Absorbance (ascorbate, λ = 265 nm) ([2]; IBE 0.1, čas 0 (time 0), mean (průměr)): 0.839
Absorbance (ascorbate, λ = 265 nm) ([2]; IBE 0.1, čas 10 (time 10), mean (průměr)): 0.7956
Absorbance (ascorbate, λ = 265 nm) ([2]; IBE 0.1, čas 20 (time 20), mean (průměr)): 0.7625
Absorbance (ascorbate, λ = 265 nm) ([2]; IBE 0.1, čas 30 (time 30), mean (průměr)): 0.731
Ascorbate oxidation, % of the control ([2]; IBE 1): significant (p < 0.001) increase
Ascorbate oxidation, % of the control ([2]; IBE 3): significant (p < 0.001) increase
%Fe 30min (ascorbate oxidation, Fe = 100%), průměr (mean) ([2]; sheet IBE 1, 30min, Fe 100%, mean): 274.4%
%Fe 30min (ascorbate oxidation, Fe = 100%), single replicates ([2]; sheet IBE 1, 30min, Fe 100%, replicates): 326.6% and 305.9% and 307.7% and 264.1% and 243.3% and 218.6% and 291.9% and 257% and 254.6%
raw reading at čas 0 (time 0), průměr (mean) ([2]; sheet IBE 1, time 0, mean of 9 readings): 0.8081
raw reading at čas 0 (time 0), single replicates ([2]; sheet IBE 1, time 0, replicates of 2014-03-24 (two runs) and 2014-03-25): 0.8198 and 0.8003 and 0.8337 and 0.8268 and 0.8308 and 0.7872 and 0.7839 and 0.7637 and 0.8272
odečet 0 (reading minus time 0 reading) at čas 10, průměr (mean) ([2]; sheet IBE 1, time 10, mean): -0.1075
raw reading at čas 10 (time 10), průměr (mean) ([2]; sheet IBE 1, time 10, mean of 9 readings): 0.7006
odečet 0 (reading minus time 0 reading) at čas 10, single replicates [2, 3]: -0.1527 and -0.1456 and -0.1532 and -0.1025 and -0.07863 and -0.05463 and -0.1235 and -0.07821 and -0.07861
raw reading at čas 10 (time 10), single replicates [2, 3]: 0.681 and 0.6812 and 0.6776 and 0.6847 and 0.7053 and 0.7091 and 0.7037 and 0.7416 and 0.7217
odečet 0 (reading minus time 0 reading) at čas 20, průměr (mean) ([2]; sheet IBE 1, time 20, mean): -0.1811
raw reading at čas 20 (time 20), průměr (mean) ([2]; sheet IBE 1, time 20, mean of 9 readings): 0.627
odečet 0 (reading minus time 0 reading) at čas 20, single replicates [2, 4]: -0.2337 and -0.2156 and -0.2203 and -0.1671 and -0.1458 and -0.1256 and -0.1987 and -0.1601 and -0.163
raw reading at čas 20 (time 20), single replicates [2, 4]: 0.6 and 0.6112 and 0.6105 and 0.6201 and 0.6381 (2×) and 0.6284 and 0.6597 and 0.6373
odečet 0 (reading minus time 0 reading) at čas 30, průměr (mean) ([2]; sheet IBE 1, time 30, mean): -0.2442
raw reading at čas 30 (time 30), průměr (mean) ([2]; sheet IBE 1, time 30, mean of 9 readings): 0.5639
odečet 0 (reading minus time 0 reading) at čas 30, single replicates [2, 5]: -0.2822 and -0.2643 and -0.2658 and -0.2282 and -0.2102 and -0.1888 and -0.2754 and -0.2425 and -0.2402
raw reading at čas 30 (time 30), single replicates [2, 5]: 0.5515 and 0.5624 and 0.5649 and 0.5591 and 0.5737 and 0.5749 and 0.5518 and 0.5772 and 0.56
%Fe 30min (ascorbate oxidation, Fe 100%), průměr ([2]; sheet IBE 3, 30min, Fe alone = 100%, mean (průměr) of the 9 replicates): 278.6%
%Fe 30min (ascorbate oxidation, Fe 100%) ([2]; sheet IBE 3, 30min, Fe alone = 100%, single replicates): 323.8% and 304.1% and 296.1% and 279.4% and 257.4% and 253.6% and 291.2% and 261% and 240.7%
Change of absorbance, odečet 0 (time 0 subtracted), čas 10, průměr ([2]; sheet IBE 3, time 10 minus time 0, mean (průměr)): -0.09469
Change of absorbance, odečet 0 (time 0 subtracted), čas 10 ([2]; sheet IBE 3, time 10 minus time 0, single replicates): -0.1148 and -0.1115 and -0.1009 and -0.09722 and -0.09232 and -0.09642 and -0.1047 and -0.06955 and -0.06465
Change of absorbance, odečet 0 (time 0 subtracted), čas 20, průměr ([2]; sheet IBE 3, time 20 minus time 0, mean (průměr)): -0.1775
Change of absorbance, odečet 0 (time 0 subtracted), čas 20 ([2]; sheet IBE 3, time 20 minus time 0, single replicates): -0.2173 and -0.2064 and -0.1913 and -0.1735 and -0.1668 and -0.1578 and -0.1895 and -0.1498 and -0.1449
Change of absorbance, odečet 0 (time 0 subtracted), čas 30, průměr ([2]; sheet IBE 3, time 30 minus time 0, mean (průměr)): -0.2575
Change of absorbance, odečet 0 (time 0 subtracted), čas 30 ([2]; sheet IBE 3, time 30 minus time 0, single replicates): -0.3006 and -0.2823 and -0.2749 and -0.2593 and -0.2389 (2×) and -0.2354 and -0.2666 and -0.2203
